From PubChem BioAssay (NCI)
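The concentration for 50% growth inhibition is given as GI50. At the TGI there is no net growth.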

Legend:
Assay in all cases: NCI tumour cell line growth inhibition, 384-well format
MCF7 breast = system: MCF7 breast
OVCAR-4 ovarian = system: OVCAR-4 ovarian
NCI-H226 lung = system: NCI-H226 lung
SR leukemia = system: SR leukemia
MDA-MB-468 breast = system: MDA-MB-468 breast
K-562 leukemia = system: K-562 leukemia
CCRF-CEM leukemia = system: CCRF-CEM leukemia
NCI-H23 lung = system: NCI-H23 lung
OVCAR-8 ovarian = system: OVCAR-8 ovarian
786-0 renal = system: 786-0 renal
MDA-MB-231 breast = system: MDA-MB-231 breast
A549 NSCLC = system: A549 NSCLC
KM12 colon = system: KM12 colon
UACC-62 melanoma = system: UACC-62 melanoma
HT29 colon = system: HT29 colon
SK-MEL-28 melanoma = system: SK-MEL-28 melanoma
MALME-3M melanoma = system: MALME-3M melanoma
M14 melanoma = system: M14 melanoma
PC-3 prostate = system: PC-3 prostate
SNB-75 CNS = system: SNB-75 CNS
LOX IMVI melanoma = system: LOX IMVI melanoma
HCT-15 colon = system: HCT-15 colon
NCI/ADR-RES ovarian = system: NCI/ADR-RES ovarian
NCI-H322M lung = system: NCI-H322M lung
DU-145 prostate = system: DU-145 prostate
COLO 205 colon = system: COLO 205 colon
HL-60(TB) leukemia = system: HL-60(TB) leukemia
RXF 393 renal = system: RXF 393 renal
MOLT-4 leukemia = system: MOLT-4 leukemia
TK-10 renal = system: TK-10 renal
SNB-19 CNS = system: SNB-19 CNS
EKVX NSCLC = system: EKVX NSCLC
HCC-2998 colon = system: HCC-2998 colon
MDA-MB-435 melanoma = system: MDA-MB-435 melanoma
HS 578T breast = system: HS 578T breast
RPMI-8226 leukemia = system: RPMI-8226 leukemia
SF-268 CNS = system: SF-268 CNS
NCI-H522 lung = system: NCI-H522 lung
HOP-62 NSCLC = system: HOP-62 NSCLC
UO-31 renal = system: UO-31 renal
BT-549 breast = system: BT-549 breast
UACC-257 melanoma = system: UACC-257 melanoma
SK-OV-3 ovarian = system: SK-OV-3 ovarian
SK-MEL-5 melanoma = system: SK-MEL-5 melanoma
IGROV1 ovarian = system: IGROV1 ovarian
SW-620 colon = system: SW-620 colon
NCI-H460 NSCLC = system: NCI-H460 NSCLC
ACHN renal = system: ACHN renal
SF-539 CNS = system: SF-539 CNS
OVCAR-3 ovarian = system: OVCAR-3 ovarian
CAKI-1 renal = system: CAKI-1 renal
A498 renal = system: A498 renal
HOP-92 NSCLC = system: HOP-92 NSCLC
SN12C renal = system: SN12C renal
T-47D breast = system: T-47D breast
SF-295 CNS = system: SF-295 CNS
OVCAR-5 ovarian = system: OVCAR-5 ovarian

SMILES: C[C@H]1COCCN1c1nc(-c2cnc(N)cc2C(F)F)nc(N2CCOCC2)n1
- GI50 (MCF7 breast): 0.0453 µM
- TGI (MCF7 breast): 3.08 µM
- GI50 (OVCAR-4 ovarian): 0.115 µM
- TGI (OVCAR-4 ovarian): 0.585 µM
- GI50 (NCI-H226 lung): 0.159 µM
- TGI (NCI-H226 lung): 0.649 µM
- GI50 (SR leukemia): 0.125 µM
- TGI (SR leukemia): 0.37 µM
- GI50 (MDA-MB-468 breast): 0.172 µM
- TGI (MDA-MB-468 breast): 0.487 µM
- GI50 (K-562 leukemia): 0.548 µM
- TGI (K-562 leukemia): > 100 µM
- GI50 (CCRF-CEM leukemia): 0.224 µM
- TGI (CCRF-CEM leukemia): 1.68 µM
- GI50 (NCI-H23 lung): 0.184 µM
- TGI (NCI-H23 lung): 30.7 µM
- GI50 (OVCAR-8 ovarian): 0.307 µM
- TGI (OVCAR-8 ovarian): > 100 µM
- GI50 ([…]-0 renal): 0.385 µM
- TGI (786-0 renal): 6.13 µM
- GI50 (MDA-MB-231 breast): 0.248 µM
- TGI (MDA-MB-231 breast): > 100 µM
- GI50 (A549 NSCLC): 0.221 µM
- TGI (A549 NSCLC): 2.75 µM
- GI50 (KM12 colon): 0.294 µM
- TGI (KM12 colon): 12 µM
- GI50 (UACC-62 melanoma): 0.227 µM
- TGI (UACC-62 melanoma): 1.49 µM
- GI50 (HT29 colon): 0.263 µM
- TGI (HT29 colon): 55.3 µM
- GI50 (SK-MEL-28 melanoma): 0.146 µM
- TGI (SK-MEL-28 melanoma): 0.89 µM
- GI50 (MALME-3M melanoma): 0.0507 µM
- TGI (MALME-3M melanoma): 0.309 µM
- GI50 (M14 melanoma): 0.191 µM
- TGI (M14 melanoma): 27.4 µM
- GI50 (PC-3 prostate): 0.166 µM
- TGI (PC-3 prostate): 10.1 µM
- GI50 (SNB-75 CNS): 0.117 µM
- TGI (SNB-75 CNS): 0.81 µM
- GI50 (LOX IMVI melanoma): 0.242 µM
- TGI (LOX IMVI melanoma): 1.17 µM
- GI50 (HCT-15 colon): 0.181 µM
- TGI (HCT-15 colon): 30.9 µM
- GI50 (NCI/ADR-RES ovarian): 0.399 µM
- TGI (NCI/ADR-RES ovarian): > 100 µM
- GI50 (NCI-H322M lung): 0.203 µM
- TGI (NCI-H322M lung): 10.9 µM
- GI50 (DU-145 prostate): 0.308 µM
- TGI (DU-145 prostate): > 100 µM
- GI50 (COLO 205 colon): 0.201 µM
- TGI (COLO 205 colon): 11.8 µM
- GI50 (HL-60(TB) leukemia): 0.289 µM
- TGI (HL-60(TB) leukemia): 2.82 µM
- GI50 (RXF 393 renal): 0.315 µM
- TGI (RXF 393 renal): 2.88 µM
- GI50 (MOLT-4 leukemia): 0.103 µM
- TGI (MOLT-4 leukemia): 0.406 µM
- GI50 (TK-10 renal): 0.254 µM
- TGI (TK-10 renal): 2.01 µM
- GI50 (SNB-19 CNS): 2.33 µM
- TGI (SNB-19 CNS): > 100 µM
- GI50 (EKVX NSCLC): 0.189 µM
- TGI (EKVX NSCLC): 0.78 µM
- GI50 (HCC-2998 colon): 0.423 µM
- TGI (HCC-2998 colon): 12.4 µM
- GI50 (MDA-MB-435 melanoma): 0.275 µM
- TGI (MDA-MB-435 melanoma): 2.52 µM
- GI50 (HS 578T breast): 0.0528 µM
- TGI (HS 578T breast): 0.273 µM
- GI50 (RPMI-8226 leukemia): 0.0307 µM
- TGI (RPMI-8226 leukemia): 0.155 µM
- GI50 (SF-268 CNS): 0.311 µM
- TGI (SF-268 CNS): 36.1 µM
- GI50 (NCI-H522 lung): 0.206 µM
- TGI (NCI-H522 lung): 1.63 µM
- GI50 (HOP-62 NSCLC): 0.261 µM
- TGI (HOP-62 NSCLC): 4.41 µM
- GI50 (UO-31 renal): 0.321 µM
- TGI (UO-31 renal): > 100 µM
- GI50 (BT-549 breast): 0.175 µM
- TGI (BT-549 breast): 0.758 µM
- GI50 (UACC-257 melanoma): 0.389 µM
- TGI (UACC-257 melanoma): 3.21 µM
- GI50 (SK-OV-3 ovarian): 0.129 µM
- TGI (SK-OV-3 ovarian): 0.441 µM
- GI50 (SK-MEL-5 melanoma): 0.143 µM
- TGI (SK-MEL-5 melanoma): 0.417 µM
- GI50 (IGROV1 ovarian): 0.0538 µM
- TGI (IGROV1 ovarian): 0.265 µM
- GI50 (SW-620 colon): 0.554 µM
- TGI (SW-620 colon): > 100 µM
- GI50 (NCI-H460 NSCLC): 0.0687 µM
- TGI (NCI-H460 NSCLC): > 100 µM
- GI50 (ACHN renal): 0.247 µM
- TGI (ACHN renal): 3.83 µM
- GI50 (SF-539 CNS): 0.323 µM
- TGI (SF-539 CNS): 5.88 µM
- GI50 (OVCAR-3 ovarian): 0.27 µM
- TGI (OVCAR-3 ovarian): 2.93 µM
- GI50 (CAKI-1 renal): 0.196 µM
- TGI (CAKI-1 renal): 3.96 µM
- GI50 (A498 renal): 0.0493 µM
- TGI (A498 renal): 0.447 µM
- GI50 (HOP-92 NSCLC): 0.102 µM
- TGI (HOP-92 NSCLC): 0.462 µM
- GI50 (SN12C renal): 0.138 µM
- TGI (SN12C renal): 0.772 µM
- GI50 (T-47D breast): 0.0197 µM
- TGI (T-47D breast): 0.106 µM
- GI50 (SF-295 CNS): 0.106 µM
- TGI (SF-295 CNS): 0.463 µM
- GI50 (OVCAR-5 ovarian): 0.163 µM
- TGI (OVCAR-5 ovarian): 1.17 µM
